The values below come from patent publication US20040023935A1, “Inhalation compositions, methods of use thereof, and process for preparation of same” (Dey, L.P., priority 2002, published 2004).

SMILES strings stand for the structures. ≈ marks a conversion by molar mass, not a printed value.

Data set [1] can be described thus: Fluticasone solubilized in molten surfactant phase at 60° C. The data set is classed as physicochemical. As for the experimental part:
Whether the cosolvent, if present, is added to either the molten TPGS phase or the aqueous phase prior to mixing of the concentrate and the aqueous phase has been found herein to affect the stability of the resulting diluted composition. […] Cosolvents such as propylene glycol (PG) and polyethylene glycol 400 (PEG 400) can influence the amount solubilized by affecting the amount dissolved in the molten TPGS phase.
However, the order of addition influences the amount of drug that may be solubilized. If PG or PEG 400 is added in the molten TPGS phase before adding the drug, the amount solubilized increases (see Table 6b, below).

Data set [2] is described as follows: Amount of fluticasone solubilized in aqueous TPGS composition, by order of addition/mixing. The data set is classed as physicochemical. To be noted: target concentration 180 mcg/ml; for solubility: aqueous TPGS composition, aqueous with cosolvent or surfactant or cyclodextrin. As for the experimental part:
In one embodiment, the drug is dissolved in the surfactant, such as molten TPGS, and then added to water. For example, when fluticasone propionate is prepared this way with a target concentration of 180 mcg/ml, the amount solubilized by addition of molten TPGS containing the drug to water is about 180 mcg/mL. The amount solubilized by addition of water to molten TPGS, followed by addition of the drug, is only 77 mcg/mL. If the aqueous phase is added to the molten TPGS, the TPGS phase forms a gel and this, apart from making the mixing process slower, makes the amount solubilized lower and variable.
Thus, in Process 1, aqueous phase is added to a solution of the drug in molten TPGS. In Process 2, a solution of the drug in molten TPGS is added to the aqueous phase. To avoid gel formation, the TPGS phase is added to the aqueous phase and slowly. Rapid addition may form gel. Also, high speed mixing reduces the formation of gel.

For the compound `C[C@@H]1C[C@H]2[C@@H]3C[C@H](F)C4=CC(=O)C=C[C@]4(C)[C@@]3(F)[C@@H](O)C[C@]2(C)[C@@]1(O)C(=O)SCF` [Fluticasone, (6α,9α,11α,16α,17α)-6,9-difluoro-11-hydroxy-16-methyl-3-oxo-17-hydroxyandrosta-1,4-diene-17-carbothioic acid, S-fluoromethyl ester], the “Fluticasone solubilized in molten surfactant phase at 60° C.” value in data set [1] (Surfactant phase: TPGS alone) is listed as 6.5 mg/g of TPGS; in data set [1] (Surfactant phase: TPGS and polyethylene glycol 400 (1:1)) it was 20.0 mg/g of TPGS; in data set [1] (Surfactant phase: TPGS and propylene glycol (2.4:1)), 11.9 mg/g of TPGS. Further, the “Amount solubilized as percent of theoretical concentration, Mean” value stood at 93.64% in data set [2] (Process 1 (Aqueous phase added to the TPGS phase all at once and then mixed)); 99.53% in data set [2] (Process 2 (TPGS phase added to aqueous phase slowly with mixing)).

A word on the solubility: it is how much of the substance goes into solution per volume. In the case of `CCC(=O)O[C@]1(C(=O)SCF)[C@H](C)C[C@H]2[C@@H]3C[C@H](F)C4=CC(=O)C=C[C@]4(C)[C@@]3(F)[C@@H](O)C[C@@]21C` [fluticasone propionate, (6α,9α,11α,16α,17α)-6,9-difluro-11-hydroxy-16-methyl-3-oxo-17-(1-oxopropoxy)androsta-1,4-diene-17-carbothioic acid, S-fluoromethyl ester], the solubility is about 180 µg/mL (≈ 360 µM) in data set [2] (addition of molten TPGS containing the drug to water) and 77 µg/mL (≈ 154 µM) in data set [2] (addition of water to molten TPGS, followed by addition of the drug).
